Experimental data taken from ChEMBL document CHEMBL1201862, “PubChem BioAssay data set” (2004).
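Grown in 96-well plates, cells were treated for 48 hours with each compound at five concentrations. Insufficient inhibition: endpoint recorded as highest concentration tested. GI50: concentration for 50% inhibition of growth.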 Activity calls are given as the source filed them. Cut-off read from the data, not from the text of the source: active = GI50 up to about 1.1 µM and inactive = higher.

Columns and labels:
Experiment in all cases: NCI-60 cell line screen, 48 h
786-0 = tested on: 786-0
A498 = tested on: A498
A549 = tested on: A549
ACHN = tested on: ACHN
BT-549 = tested on: BT-549
CAKI-1 = tested on: CAKI-1
CCRF-CEM = tested on: CCRF-CEM
COLO 205 = tested on: COLO 205
DU-145 = tested on: DU-145
EKVX = tested on: EKVX
HCC 2998 = tested on: HCC 2998
HCT-116 = tested on: HCT-116
HCT-15 = tested on: HCT-15
HL-60 = tested on: HL-60
HOP-62 = tested on: HOP-62
HOP-92 = tested on: HOP-92
HT-29 = tested on: HT-29
Hs-578T = tested on: Hs-578T
IGROV-1 = tested on: IGROV-1
K562 = tested on: K562
LOX IMVI = tested on: LOX IMVI
M14 = tested on: M14
MCF7 = tested on: MCF7
MDA-MB-231 = tested on: MDA-MB-231
MDA-MB-435 = tested on: MDA-MB-435
MDA-N = tested on: MDA-N
MOLT-4 = tested on: MOLT-4
Malme-3M = tested on: Malme-3M
NCI-H226 = tested on: NCI-H226
NCI-H23 = tested on: NCI-H23
NCI-H460 = tested on: NCI-H460
NCI-H522 = tested on: NCI-H522
OVCAR-3 = tested on: OVCAR-3
OVCAR-4 = tested on: OVCAR-4
OVCAR-5 = tested on: OVCAR-5
PC-3 = tested on: PC-3
RPMI-8226 = tested on: RPMI-8226
RXF 393 = tested on: RXF 393
SF-268 = tested on: SF-268
SF-295 = tested on: SF-295
SF-539 = tested on: SF-539
SK-MEL-28 = tested on: SK-MEL-28
SK-MEL-2 = tested on: SK-MEL-2
SK-MEL-5 = tested on: SK-MEL-5
SK-OV-3 = tested on: SK-OV-3
SN12C = tested on: SN12C
SNB-19 = tested on: SNB-19
SR = tested on: SR
SW-620 = tested on: SW-620
T47D = tested on: T47D
TK-10 = tested on: TK-10
U-251 = tested on: U-251
UACC-257 = tested on: UACC-257
UACC-62 = tested on: UACC-62
UO-31 = tested on: UO-31

With `CSc1c(C(=O)Nc2ccc(C)cc2)c(N)nn1-c1ccccc1` the GI50 (786-0) was 19.9 µM (inactive), the GI50 (A498) was 23.1 µM (inactive) and the GI50 (A549) was 27.3 µM (inactive). For the same compound, the GI50 (ACHN) was 43.8 µM (inactive), the GI50 (BT-549) was 43.2 µM (inactive) and the GI50 (CAKI-1) was 23.4 µM (inactive). The GI50 (CCRF-CEM) was > 100 µM (inactive), the GI50 (COLO 205) was > 100 µM (inactive) and the GI50 (DU-145) was 42.8 µM (inactive). For the same compound, the GI50 (EKVX) was 49.4 µM (inactive), the GI50 (HCC 2998) was 58.3 µM (inactive) and the GI50 (HCT-116) was 49.4 µM (inactive). The GI50 (HCT-15) was > 100 µM, the GI50 (HL-60) was > 100 µM (inactive) and the GI50 (HOP-62) was 57.7 µM (inactive). For the same compound, the GI50 (HOP-92) was 23.6 µM (inactive), the GI50 (HT-29) was > 100 µM (inactive) and the GI50 (Hs-578T) was 46.9 µM (inactive). For the same compound, the GI50 (IGROV-1) was 36.1 µM (inactive), the GI50 (K562) was > 100 µM (inactive) and the GI50 (LOX IMVI) was > 100 µM (inactive). The GI50 (M14) was 36.7 µM (inactive), the GI50 (MCF7) was > 100 µM (inactive) and the GI50 (MDA-MB-231) was 40.6 µM (inactive). The GI50 (MDA-MB-435) was > 100 µM (inactive), the GI50 (MDA-N) was > 100 µM (inactive) and the GI50 (MOLT-4) was > 100 µM (inactive). The GI50 (Malme-3M) was 19.9 µM (inactive), the GI50 (NCI-H226) was > 100 µM (inactive) and the GI50 (NCI-H23) was > 100 µM (inactive). For the same compound, the GI50 (NCI-H460) was 3.55 µM (inactive), the GI50 (NCI-H522) was 71.4 µM (inactive) and the GI50 (OVCAR-3) was > 100 µM (inactive). For the same compound, the GI50 (OVCAR-4) was 13 µM (inactive), the GI50 (OVCAR-5) was > 100 µM (inactive) and the GI50 (PC-3) was 39.5 µM (inactive). For the same compound, the GI50 (RPMI-8226) was > 100 µM (inactive), the GI50 (RXF 393) was 26.4 µM (inactive) and the GI50 (SF-268) was 46 µM (inactive). The GI50 (SF-295) was 48.8 µM (inactive), the GI50 (SF-539) was 35.8 µM (inactive) and the GI50 (SK-MEL-28) was 55.1 µM (inactive). For the same compound, the GI50 (SK-MEL-2) was > 100 µM (inactive), the GI50 (SK-MEL-5) was > 100 µM (inactive) and the GI50 (SK-OV-3) was 64.6 µM (inactive). The GI50 (SN12C) was > 100 µM (inactive), the GI50 (SNB-19) was 26.7 µM (inactive) and the GI50 (SR) was 9.89 µM (inactive). For the same compound, the GI50 (SW-620) was > 100 µM (inactive), the GI50 (T47D) was 98.9 µM (inactive) and the GI50 (TK-10) was 33.3 µM (inactive). For the same compound, the GI50 (U-251) was 28.3 µM (inactive), the GI50 (UACC-257) was 54 µM (inactive) and the GI50 (UACC-62) was 95.9 µM (inactive). The GI50 (UO-31) was > 100 µM (inactive).
